What was measured:
Type in all cases: cell-based, E. coli
[1] = test system: wild type; conditions: 10 microliters of 30% hydrogen peroxide or cumene hydroperoxide on 1/4 in filter disc on LB plate, 24 h at 37° C., typical numbers
[2] = test system: oxyR2; conditions: 10 microliters of 30% hydrogen peroxide or cumene hydroperoxide on 1/4 in filter disc on LB plate, 24 h at 37° C., typical numbers
[3] = test system: MC4100/oxyR^+; test: resistance to organic solvent, tetralin overlay on LB plate, wild type; conditions: wild type strain (oxyR^+); 5 mm depth tetralin overlay on LB agar; overnight at 37° C.
Procedure: (§1) Wild type MC4100/oxyR^+ and MC4100oxyR2 mutants were streaked onto the same LB plate made with a 80 mm diameter PYREX Petri dish (VWR International, West Chester, Pa.). Solvent tetralin (1,2,3,4-tetrahydronaphthalene) was then poured onto the LB agar surface to have a 5 mm depth of overlay. The plate was then covered with a Petri dish cover and sealed with a strip of parafilm (American National Can, Chicago, Ill.), and put into 37° C. incubator. After overnight culturing, tetralin was decanted and the plate was put into a fume hood for 30 min to allow evaporation of the remaining tetralin. A picture of the plate was taken with an Eagle Eye® II still imaging system (Stratagene, La Jolla, Calif.).

[4] = test system: MC4100oxyR2; test: resistance to organic solvent, tetralin overlay on LB plate, oxyR2 mutant; conditions: oxyR2 mutant strain; 5 mm depth tetralin overlay on LB agar; overnight at 37° C.
Procedure: as §1

Row | SMILES | Diameter of the zone killed [1] | Diameter of the zone killed [2] | colony growth under solvent overlay [3] | colony growth under solvent overlay [4]
1 | OO [Hydrogen peroxide] | 25 mm | 13 mm | – | –
2 | c1ccc2c(c1)CCCC2 [tetralin, 1,2,3,4-tetrahydronaphthalene] | – | – | No colony was observed | grew just fine

From US20030068611A1, “Methods for increasing microbial metabolic efficiency through regulation of oxidative stress” (priority 2001, published 2003)
